In article PMC8831520, “Small molecule SWELL1 complex induction improves glycemic control and nonalcoholic fatty liver disease in murine Type 2 diabetes” (Nature Communications, 2022):
Read-outs that look alike come from different tables or passages of the source.

Tests used:
[1] = target: T1, ICl,SWELL (SWELL1-LRRC8 channel) in HEK-293 cells (Homo sapiens, UniProt Q8IWT6); assay: ICl,SWELL inhibition after hypotonic activation (open channel), patch-clamp; format: cell-based; details: for inhibition of channels first opened by hypotonic activation: 1 μM
T1 construct: applied when the endogenous HEK-293 cell ICl,SWELL current density reached 30 pA/pF; endogenous in cells; host or cells: HEK-293 (ATCC, #CRL-1573)
T1 sequence (Q8IWT6 1-810): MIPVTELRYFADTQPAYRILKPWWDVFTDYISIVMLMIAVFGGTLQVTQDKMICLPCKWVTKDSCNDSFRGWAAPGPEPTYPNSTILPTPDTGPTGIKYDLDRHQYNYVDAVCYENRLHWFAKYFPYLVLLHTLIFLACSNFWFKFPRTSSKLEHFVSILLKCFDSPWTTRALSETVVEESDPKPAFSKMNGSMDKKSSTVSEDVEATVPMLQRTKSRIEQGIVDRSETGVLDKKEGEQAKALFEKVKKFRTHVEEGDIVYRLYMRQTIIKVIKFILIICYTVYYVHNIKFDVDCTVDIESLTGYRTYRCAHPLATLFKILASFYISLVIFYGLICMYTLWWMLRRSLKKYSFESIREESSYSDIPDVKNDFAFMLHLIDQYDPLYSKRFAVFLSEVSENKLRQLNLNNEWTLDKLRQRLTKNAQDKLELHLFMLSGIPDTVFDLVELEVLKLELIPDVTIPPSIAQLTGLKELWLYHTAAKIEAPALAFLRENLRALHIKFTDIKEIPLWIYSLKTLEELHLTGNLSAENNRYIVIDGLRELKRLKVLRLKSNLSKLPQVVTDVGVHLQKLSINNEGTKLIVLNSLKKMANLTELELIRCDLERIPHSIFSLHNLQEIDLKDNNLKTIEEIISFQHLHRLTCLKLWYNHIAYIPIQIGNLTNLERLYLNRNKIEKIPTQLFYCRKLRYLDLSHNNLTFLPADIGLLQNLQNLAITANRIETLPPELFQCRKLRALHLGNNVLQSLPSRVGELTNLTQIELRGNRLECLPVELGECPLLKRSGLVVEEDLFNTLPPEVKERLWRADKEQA
Protocol: Patch-clamp recordings of β-cells, 3T3-F442A adipocytes, and mature human adipocytes were performed as described previously[24],[28]. Briefly, all patch-clamp experiments were conducted at room temperature using either an Axopatch 200B amplifier or a MultiClamp 700B amplifier paired to a Digidata 1550 digitizer. Data were acquired using pClamp 10.4 software. For hypotonic swelling, extracellular solution consisted of the following (in mM): 90 NaCl, 2 CsCl, 1 MgCl2, 1 CaCl2, 10 HEPES, 10 mannitol, pH 7.4 with NaOH (210 mOsm/kg). The isotonic extracellular solution consisted of the same composition above but with 110 mM instead of 10 mM mannitol (300 mOsm/kg). The swell-activated current was elicited by perfusing cells with a hypotonic solution (210 mOsm/kg). […] For perforated-patch recordings in isolated human adipocytes, the intracellular solution was as above but without ATP and GTP, and contained 360 μg/ml Amphotericin B (Sigma). The holding potential was 0 mV. Voltage ramps from −100 to +100 mV (at 0.4 mV/ms) were applied every 4 s. The sampling interval was 100 μs and filtered at 10 kHz. For perforated-patch recordings, cells with a membrane resistance below 1 GΩ or access resistance above 20 MΩ were discarded. […]

[2] = tested on: T2, SWELL1 protein in 3T3-F442A adipocytes; assay: SWELL1 protein under glucolipotoxic stress (palmitate + glucose); format: cell-based, murine; details: 10 µM 96 h pretreatment, then 1 mM palmitate + 25 mM glucose 16 h
T2 construct: host or cells: 3T3-F442A preadipocytes and differentiated adipocytes (wild type)
Protocol: In the case of 3T3-F442A adipocytes, the WT and KO cells were treated with either vehicle (DMSO), 1 or 10 µM SN-40X (after 7–11 days of differentiation) for 96 h and then stimulated with 0 and 10 nM insulin/serum-containing media with vehicle (DMSO) or SN-40X for 15 min for SWELL1 detection. […] To simulate glucolipotoxicity, 8 mM sodium palmitate was dissolved in 18.4% fatty-acid free BSA at 37 °C in DMEM medium with 25 mM glucose to obtain a conjugation ratio of 1:3 palmitate:BSA[80].

[3] = tested on: endogenous SWELL1 in 3T3-F442A preadipocytes; assay: SWELL1 plasma membrane localization, immunofluorescence; format: cell-based, murine; details: 1 or 10 µM, 48 h, vs vehicle or Inactive 1
Protocol: 3T3-F442A preadipocytes (WT, KO) and differentiated adipocytes without or with SWELL1 overexpression (WT + SWELL1 O/E, KO + SWELL1 O/E) were prepared as described in the Cell culture section on collagen-coated coverslips. […] The cells were fixed in ice-cold acetone for 15 min at −20 °C and then washed four times with 1XPBS. […] Either anti-SWELL1 (1:400) or anti-Flag (1:1500, Sigma #F3165) antibody was added to the cells and incubated overnight at 4 °C. The cells were then washed three times (1XPBS) prior to and after the addition of 1:1000 Alexa Fluor 488/568 secondary antibody (anti-rabbit, #A11034 or anti-mouse, #A11004) for 1 h at RT. Cells were counterstained with nuclear TO-PRO-3 (Life Technologies, #T3605) or DAPI (Invitrogen, #D1306) staining (1 µM) for 20 min followed by three washes with 1XPBS. Coverslips were further mounted on slides with ProLong Diamond anti-fading media. All images were captured using Zeiss LSM700/LSM510 confocal microscope with 63X objective (NA 1.4). SWELL1 membrane localization was quantified by stacking all the z-images and converting it into a binary image where the cytoplasmic intensity per unit area was subtracted from the total cell intensity per unit area using ImageJ software.

[4] = tested on: pancreatic islets of T2D mice; assay: Insulin secretion of treated T2D mice (serum insulin, islet perifusion GSIS); format: in vivo, mouse
Protocol: (§1) Mice were fasted for 6 h prior to glucose tolerance tests (GTT). Baseline glucose levels at 0 min timepoint (fasting glucose, FG) were measured from a blood sample collected from tail snipping using glucometer (Bayer Healthcare LLC). Either 1 or 0.75 g D-Glucose/kg body weight were injected (i.p.) for lean or HFD mice, respectively and glucose levels were measured at 5 or 7, 15, 30, 60, 90, and 120 min timepoints after injection. For insulin tolerance tests (ITTs), the mice were fasted for 4 h. Similar to GTTs, the baseline blood glucose levels were measured at 0 min timepoint and 15, 30, 60, 90, and 120 min timepoints post-injection (i.p.) of insulin (HumulinR, 1 U/kg bodyweight for lean mice or 1.25 U/kg body weight for HFD mice). […] The collected plasma was then measured for insulin content by using Ultra-Sensitive Mouse Insulin ELISA Kit (Crystal Chem, #90080). All mouse studies were performed in a blinded fashion.

[5] = tested on: T2D and non-T2D mice; assay: Metabolic phenotyping: fasting glucose, GTT, ITT
Protocol: All compounds were dissolved in Kolliphor® EL (Sigma, #C5135).
as §1

[6] = HEK-293 cells, hypotonic (210 mOsm) stimulation, outward current, compound applied at 30 pA/pF, read-out: IC50 for ICl,SWELL inhibition
[7] = 12–18 weeks HFD mice, 5 mg/kg/day × 4 days, pre- vs post-treatment

## CCCCC1(C2CCCC2)Cc2cc(OCC(=O)O)c(Cl)c(Cl)c2C1=O (stereo not shown) [Inactive 1, 2-((2-butyl-6,7-dichloro-2-cyclopentyl-1-oxo-2,3-dihydro-1H-inden-5-yl)oxy)acetic acid]
[1]; [6]
  IC50: 35.5 µM

## CCCCC1(C2CCCC2)Cc2cc(OCCCC(=O)O)c(Cl)c(Cl)c2C1=O (stereo not shown) [SN-401, 4-((2-butyl-6,7-dichloro-2-cyclopentyl-1-oxo-2,3-dihydro-1H-inden-5-yl)oxy)butanoic acid]
[2]
  prevention of palmitate/glucose-induced reduction of SWELL1 protein: entirely prevented
[3]
  plasma membrane (PM) localization of endogenous SWELL1: enhanced
[4]; HFD mice, 21 weeks HFD
  impaired GSIS (serum insulin, islet perifusion): significantly improved
[5]; HFD-fed and KKAy T2D mice, 5 mg/kg i.p. 4–10 days
  fasting blood glucose (FG), glucose tolerance (GTT), and insulin tolerance (ITT): improved
[5]; KKAa parental strain, 5 mg/kg × 4–10 days
  hypoglycemia in control strain: does not cause hypoglycemia
[5]; lean, non-T2D, glucose-tolerant mice
  FG, GTT, and ITT compared to vehicle: similar
[5]; same mice after 16 weeks of HFD-feeding, 4 days treatment
  FG, GTT, and ITT compared to vehicle: marked improvements
[1]
  IC50: 3.9 µM
  inhibition of channels first opened by hypotonic activation: relatively ineffective
[1]; HEK-293 cells
  concentrations required to effectively inhibit channels when first opened by hypotonic activation: 6 to 10 µM

## CCCCC1(C2CCCC2)Cc2cc(OCCCCCC(=O)O)c(Cl)c(Cl)c2C1=O (stereo not shown) [SN-406, 6-((2-butyl-6,7-dichloro-2-cyclopentyl-1-oxo-2,3-dihydro-1H-inden-5-yl)oxy)hexanoic acid]
[2]
  prevention of palmitate/glucose-induced reduction of SWELL1 protein: entirely prevented
[3]
  plasma membrane (PM) localization of endogenous SWELL1: enhanced
[4]; islets of HFD-T2D mice, compared to Inactive 1
  insulin secretion in perifusion GSIS: significantly augmented
[5]; [7]
  fasting blood glucose: markedly reduced
  glucose tolerance: improved
[5]; HFD-T2D mice, compared to Inactive 1
  insulin sensitivity based on HOMA-IR: trend toward improved insulin sensitivity
[5]; HFD-T2D mice, separate experiment, compared to Inactive 1
  glucose tolerance: significantly improved
[1]
  inhibition of channels first opened by hypotonic activation: relatively ineffective
[1]; HEK-293 cells
  ICl,SWELL inhibitory activity compared to SN-401: increased ICl,SWELL inhibitory activity
  concentrations required to effectively inhibit channels when first opened by hypotonic activation: 6 to 10 µM
[1]; [6]
  IC50: 3.1 µM
